Literature values as cited in patent US6768024B1, “Triamine derivative melanocortin receptor ligands and methods of using same” (Lion Bioscience AG, priority 2000, dated 2004).

Columns and labels:
rodent models = conditions: normal, Zucker fatty and diet-induced obesity rodent models
rats = conditions: IP, ICV
human subjects = conditions: pilot phase I

For CC(C)CC(N(C)C)C1(c2ccc(Cl)cc2)CCC1 (stereo not drawn) [Sibutramine], the body weight (rodent models) is given as “lower body weight”.
For “Ac-Nle-Gln-His-(D)-Phe-Arg-(D)-Trp-Gly-NH2 [HP228]”, the “hypophagia and weight loss” value (rats) is listed as “notable hypophagia and weight loss”.
For MELANOTAN-II, the penile erections (human subjects) is given as “cause penile erections”.
